# According to paper PMC10301922, “Anti-Oxidant, Anti-Mutagenic Activity and Safety Evaluation of Antrocin” (Toxics, 2023):
# Test system: Sprague Dawley rats
# Assay: 28-day oral toxicity test: histopathological examination
# Conditions: male rats; for Bone marrow, femur: Hypocellularity; Score value / Bone marrow, sternum: Hypocellularity; Score value / Bone, femur: Hypertrophy, epiphysis; Score value / Spleen: Atrophy, red pulp; Score value: grades 1-5
smiles,measurement,setting,value
"C=C1CC[C@H]2C(C)(C)CCC[C@@]23C(=O)OC[C@@H]13 [Antrocin, (-)-Antrocin]","Intestine, small, Duodenum: histopathological lesions",7.5 mg/kg oral 28 d,-
same,"Intestine, small, Ileum: histopathological lesions",7.5 mg/kg oral 28 d,-
same,"Intestine, small, Jejunum: histopathological lesions",7.5 mg/kg oral 28 d,-
same,"Kidney: Cast, tubule, focal, minimal; incidence",7.5 mg/kg oral 28 d,-
same,"Kidney: Cyst, tubule, focal, slight; incidence",7.5 mg/kg oral 28 d,1/5
same,"Kidney: Infarct, tubule, focal, slight; incidence",7.5 mg/kg oral 28 d,2/5
same,Liver: histopathological lesions,7.5 mg/kg oral 28 d,-
same,Lung: histopathological lesions,7.5 mg/kg oral 28 d,-
same,"Lymph node, Cervical: histopathological lesions",7.5 mg/kg oral 28 d,-
same,"Lymph node, Mesenteric: histopathological lesions",7.5 mg/kg oral 28 d,-
same,Mammary gland: histopathological lesions,7.5 mg/kg oral 28 d,-
same,Optic nerve: histopathological lesions,7.5 mg/kg oral 28 d,-
same,Pancreas: histopathological lesions,7.5 mg/kg oral 28 d,-
same,Parathyroid gland: histopathological lesions,7.5 mg/kg oral 28 d,-
same,Pituitary: histopathological lesions,7.5 mg/kg oral 28 d,-
same,"Salivary gland, Mandibular lobe: histopathological lesions",7.5 mg/kg oral 28 d,-
same,"Salivary gland, Sublingual lobe: histopathological lesions",7.5 mg/kg oral 28 d,-
same,Sciatic nerve: histopathological lesions,7.5 mg/kg oral 28 d,-
same,Seminal vesicle: histopathological lesions,7.5 mg/kg oral 28 d,-
same,Skeletal muscle: histopathological lesions,7.5 mg/kg oral 28 d,-
same,Skin: histopathological lesions,7.5 mg/kg oral 28 d,-
same,Spinal cord: histopathological lesions,7.5 mg/kg oral 28 d,-
same,"Spleen: Atrophy, red pulp, diffuse, slight to moderate; incidence",7.5 mg/kg oral 28 d,0/5
same,Stomach: histopathological lesions,7.5 mg/kg oral 28 d,-
same,Testis: histopathological lesions,7.5 mg/kg oral 28 d,-
same,Thymus: histopathological lesions,7.5 mg/kg oral 28 d,-
same,Thyroid gland: histopathological lesions,7.5 mg/kg oral 28 d,-
same,Tongue: histopathological lesions,7.5 mg/kg oral 28 d,-
same,Trachea: histopathological lesions,7.5 mg/kg oral 28 d,-
same,Urinary bladder: histopathological lesions,7.5 mg/kg oral 28 d,-
same,"Bone marrow, femur: Hypocellularity; Score value",7.5 mg/kg oral 28 d,0
same,"Bone marrow, sternum: Hypocellularity; Score value",7.5 mg/kg oral 28 d,0
same,"Bone, femur: Hypertrophy, epiphysis; Score value",7.5 mg/kg oral 28 d,0
same,"Spleen: Atrophy, red pulp; Score value",7.5 mg/kg oral 28 d,0
same,"Adrenal gland: Congestion, cortex, multifocal, slight; incidence",37.5 mg/kg oral 28 d,-
same,Aorta: histopathological lesions,37.5 mg/kg oral 28 d,-
same,"Bone marrow, femur: Hypocellularity, diffuse, slight to moderate/severe; incidence",37.5 mg/kg oral 28 d,0/5
same,"Bone marrow, sternum: Hypocellularity, diffuse, moderate; incidence",37.5 mg/kg oral 28 d,0/5
same,"Bone, femur: Hypertrophy, epiphysis, diffuse, slight to moderate/severe; incidence",37.5 mg/kg oral 28 d,0/5
same,Coagulative gland: histopathological lesions,37.5 mg/kg oral 28 d,-
same,"Epididymis: Granuloma, spermatic, focal, moderate; incidence",37.5 mg/kg oral 28 d,-
same,Esophagus: histopathological lesions,37.5 mg/kg oral 28 d,-
same,Eyes: histopathological lesions,37.5 mg/kg oral 28 d,-
same,Harderian gland: histopathological lesions,37.5 mg/kg oral 28 d,-
same,"Heart: Infiltration, mononuclear cell, focal, minimal to slight; incidence",37.5 mg/kg oral 28 d,1/5
same,"Intestine, large, Caecum: histopathological lesions",37.5 mg/kg oral 28 d,-
same,"Intestine, large, Colon: histopathological lesions",37.5 mg/kg oral 28 d,-
same,"Intestine, large, Rectum: histopathological lesions",37.5 mg/kg oral 28 d,-
same,"Intestine, small, Duodenum: histopathological lesions",37.5 mg/kg oral 28 d,-
same,"Intestine, small, Ileum: histopathological lesions",37.5 mg/kg oral 28 d,-
same,"Intestine, small, Jejunum: histopathological lesions",37.5 mg/kg oral 28 d,-
same,"Kidney: Cast, tubule, focal, minimal; incidence",37.5 mg/kg oral 28 d,-
same,"Kidney: Infarct, tubule, focal, slight; incidence",37.5 mg/kg oral 28 d,1/5
same,Liver: histopathological lesions,37.5 mg/kg oral 28 d,-
same,Lung: histopathological lesions,37.5 mg/kg oral 28 d,-
same,"Lymph node, Cervical: histopathological lesions",37.5 mg/kg oral 28 d,-
same,"Lymph node, Mesenteric: histopathological lesions",37.5 mg/kg oral 28 d,-
same,Mammary gland: histopathological lesions,37.5 mg/kg oral 28 d,-
same,Optic nerve: histopathological lesions,37.5 mg/kg oral 28 d,-
same,Pancreas: histopathological lesions,37.5 mg/kg oral 28 d,-
same,Parathyroid gland: histopathological lesions,37.5 mg/kg oral 28 d,-
same,Pituitary: histopathological lesions,37.5 mg/kg oral 28 d,-
same,"Prostate gland: Infiltration, mononuclear cell, focal, minimal to slight; incidence",37.5 mg/kg oral 28 d,2/5
same,"Salivary gland, Mandibular lobe: histopathological lesions",37.5 mg/kg oral 28 d,-
same,"Salivary gland, Sublingual lobe: histopathological lesions",37.5 mg/kg oral 28 d,-
same,Sciatic nerve: histopathological lesions,37.5 mg/kg oral 28 d,-
same,Seminal vesicle: histopathological lesions,37.5 mg/kg oral 28 d,-
same,Skeletal muscle: histopathological lesions,37.5 mg/kg oral 28 d,-
same,Skin: histopathological lesions,37.5 mg/kg oral 28 d,-
same,Spinal cord: histopathological lesions,37.5 mg/kg oral 28 d,-
same,"Spleen: Atrophy, red pulp, diffuse, slight to moderate; incidence",37.5 mg/kg oral 28 d,0/5
same,Stomach: histopathological lesions,37.5 mg/kg oral 28 d,-
same,Testis: histopathological lesions,37.5 mg/kg oral 28 d,-
same,Thymus: histopathological lesions,37.5 mg/kg oral 28 d,-
same,Thyroid gland: histopathological lesions,37.5 mg/kg oral 28 d,-
same,Tongue: histopathological lesions,37.5 mg/kg oral 28 d,-
same,Trachea: histopathological lesions,37.5 mg/kg oral 28 d,-
same,Urinary bladder: histopathological lesions,37.5 mg/kg oral 28 d,-
same,"Bone marrow, femur: Hypocellularity; Score value",37.5 mg/kg oral 28 d,0
same,"Bone marrow, sternum: Hypocellularity; Score value",37.5 mg/kg oral 28 d,0
same,"Bone, femur: Hypertrophy, epiphysis; Score value",37.5 mg/kg oral 28 d,0
same,"Spleen: Atrophy, red pulp; Score value",37.5 mg/kg oral 28 d,0
